# Assay results taken from article PMC8308135 (2021).
# Test system: A15T3 dsDNA (DNA, duplex) AAAAAAAAAAAAAAATCGTCGTCGTCGTCGTCGAAAAAAAAAAAAAAAAAGCAGTTGATCGTTTGGATACCCTGG/TTCGACGACGACGACGACGATTT
# Experiment: fluorescence quenching, log[(F0-F)/F] against log[DNA]
# Conditions: unit not given; free DNA presumed to be A15T3 dsDNA; buffer of titration not stated
structure (smiles),measurement,value
COc1cccc2c1C(=O)c1c(O)c3c(c(O)c1C2=O)C[C@@](O)(C(=O)CO)C[C@@H]3O[C@H]1C[C@H](N)[C@H](O)[C@H](C)O1,K,0.026
